Data taken from patent US9296732B2, “Substituted benzamides and their uses” (The Board of Trustees of the Leland Stanford Junior …, priority 2012, dated 2016).

Legend:
RCC4/VHL = assay: XTT cell viability assay, RCC4 with VHL-reintroduced (RCC4/VHL) versus RCC4, selectivity ratio; type: cell-based; details: for Ratio (IC50 RCC4 Proficient VHL)/IC50 RCC4 Deficient VHL): second TABLE 1 (Examples 39-55); for Ratio = IC50RCC4/VHL/IC50RCC4: first TABLE 1 (II series)
Method: (§1) RCC4 parental and RCC4 with VHL-reintroduced (RCC4/VHL), SN12C and SN12C-CSCG-VHL shRNA were maintained in DMEM supplemented with 10% FCS.
(§2) For 2,3-bis[2-methoxy-4-nitro-5-sulfophenyl]-2H-tetrazolium-5-carboxanilide (XTT) assays, five thousand cells were plated in 96-well plates. The next day, vehicle (DMSO) or drug was added by serial dilution. Four days later, media were aspirated, XTT solution (0.3 mg/ml of XTT (Sigma), 2.65 mg/ml N-methyl dibenxopyrazine methyl sulfate (Simga) in phenol red-free media) was added, and the plates were incubated at 37° C. for 1-2 hours. Metabolism of XTT was quantified by measuring the absorbance at 450 nm. IC50s were calculated using linear interpolation. For clonogenic survival assays, three hundred cells were plated per 60 mm tissue culture dish. The cells were allowed to attach overnight and then treated with vehicle or drug for 14 days. Colonies were fixed and stained with crystal violet (0.1% crystal violet in 95% ethanol). All conditions were measured in triplicate and each experiment was done in duplicate or triplicate. To determine necrosis, cells were treated with drug for a given time point. Media and cells were collected, centrifugated, and resuspended in 0.4% trypan blue (Invitrogen). Live and dead cells were counted on a hematocytometer.
(§3) The designation A reflects an IC50 of <1 nM; B reflects an IC50 ranging from 1 to 20 nM; and C is an IC50 of >20 nM. The designation “a” reflects a ratio of RCC4/RCC-VHL+ ranging from 1 to ≦10; “b” reflects from 10 to ≦100; “c” reflects a ratio of >100. Compounds 1-29 have an IC50 value of ≦10 μM when tested in the above assay.

RCC4 = assay: XTT cell viability assay in RCC4 parental (VHL-deficient) cells; type: cell-based; details: four days with drug, second TABLE 1 (Examples 39-55)
Method: as §1, §2, §3

SMILES | Ratio (IC50 RCC4 Proficient VHL)/IC50 RCC4 Deficient VHL) (RCC4/VHL) | other results
Cc1oc(-c2ccc(C(=O)NCc3cccnc3)cc2)nc1CS(=O)(=O)[C@H]1CC[C@@H](N)CC1 [Example 41, 4-(4-(((1s,4s)-4-aminocyclohexylsulfonyl)methyl)-5-methyloxazol-2-yl)-N-(pyridin-3-ylmethyl)benzamide] | b (from 10 to ≦100) | IC50 (RCC4): > 20 nM
Cc1oc(-c2ccc(C(=O)NCc3cccnc3)cc2)nc1CS(=O)(=O)[C@H]1CC[C@H](N)CC1 [Example 44, 4-(4-[[(4-Aminocyclohexane)sulfonyl]methyl]-5-methyl-1,3-oxazol-2-yl)-N-(pyridin-3-ylmethyl)benzamide] | b (from 10 to ≦100) | –
Cc1oc(-c2ccc(C(=O)NCc3cccnc3)cc2)nc1CS(=O)(=O)[C@H]1CC[C@H](N2CCCC2)CC1 [Example 45] | b (from 10 to ≦100) | –
Cc1oc(-c2ccc(C(=O)NCc3cccnc3)cc2)nc1CS(=O)(=O)[C@H]1CC[C@H](N2CCCCC2)CC1 [Example 46] | b (from 10 to ≦100) | –
Cc1oc(-c2ccc(C(=O)NCc3cccnc3)cc2)nc1CS(=O)(=O)[C@H]1CC[C@H](N)C1 [Example 47] | b (from 10 to ≦100) | –
Cc1oc(-c2ccc(C(=O)NCc3cccnc3)cc2)nc1CS(=O)(=O)[C@H]1CC[C@H](N2CCCC2)C1 [Example 48] | b (from 10 to ≦100) | –
Cc1oc(-c2ccc(C(=O)NCc3cccnc3)cc2)nc1CS(=O)(=O)[C@H]1CC[C@H](N2CCCCC2)C1 [Example 49] | b (from 10 to ≦100) | IC50 (RCC4; Homo sapiens, 96 h): < 1 nM
Cc1oc(-c2ccc(C(=O)NCc3cccnc3)cc2)nc1CS(=O)(=O)[C@@H]1CC[C@H](N)C1 [Example 50] | b (from 10 to ≦100) | –
Cc1oc(-c2ccc(C(=O)NCc3cccnc3)cc2)nc1CS(=O)(=O)[C@@H]1CC[C@H](N2CCCC2)C1 [Example 51] | b (from 10 to ≦100) | –
Cc1oc(-c2ccc(C(=O)NCc3cccnc3)cc2)nc1CS(=O)(=O)[C@@H]1CC[C@H](N2CCCCC2)C1 [Example 52] | a (a ratio of RCC4/RCC-VHL+ ranging from 1 to ≦10) | –
Cc1oc(-c2ccc(C(=O)NCc3cccnc3)cc2)nc1CS(=O)(=O)C1CCN(CC(C)C)CC1 [Example 53, 4-(5-methyl-4-[[1-(2-methylpropyl)piperidine-4-sulfonyl]methyl]-1,3-oxazol-2-yl)-N-(pyridin-3-ylmethyl)benzamide] | a (a ratio of RCC4/RCC-VHL+ ranging from 1 to ≦10) | –
Cc1oc(-c2ccc(C(=O)NCc3cccnc3)cc2)nc1CS(=O)(=O)C1CCN(C2CCCC2)CC1 [Example 54] | b (from 10 to ≦100) | –
Cc1oc(-c2ccc(C(=O)NCc3cccnc3)cc2)nc1CS(=O)(=O)C1CCN(C2CCCCC2)CC1 [Example 55] | a (a ratio of RCC4/RCC-VHL+ ranging from 1 to ≦10) | IC50 (RCC4; Homo sapiens, 96 h): < 1 nM
O=C(Nc1cccnc1)c1ccc(CNS(=O)(=O)c2cccnc2)cc1 [II-1, N-(3-Pyridinyl)-4-{[(3-pyridylsulfonyl)amino]methyl}benzamide] | – | Ratio = IC50RCC4/VHL/IC50RCC4 (RCC4/VHL): a (a ratio of RCC4/RCC-VHL+ ranging from 1 to ≦10)
O=C(Nc1cccnc1)c1ccc(CNS(=O)(=O)c2ccc(Oc3ccccc3)nc2)cc1 [II-3, 4-({[(6-Phenoxy-3-pyridinyl)sulfonyl]amino}methyl)-N-(3-pyridinyl)benzamide] | – | Ratio = IC50RCC4/VHL/IC50RCC4 (RCC4/VHL): a (a ratio of RCC4/RCC-VHL+ ranging from 1 to ≦10)
O=C(Nc1cccnc1)c1ccc(CNS(=O)(=O)c2cccs2)cc1 [II-4, N-(3-Pyridinyl)-4-{[(2-thienylsulfonyl)amino]methyl}benzamide] | – | Ratio = IC50RCC4/VHL/IC50RCC4 (RCC4/VHL): a (a ratio of RCC4/RCC-VHL+ ranging from 1 to ≦10)
O=C(Nc1cccnc1)c1ccc(CNS(=O)(=O)c2ccsc2)cc1 [II-5, N-(3-Pyridinyl)-4-{[(3-thienylsulfonyl)amino]methyl}benzamide] | – | Ratio = IC50RCC4/VHL/IC50RCC4 (RCC4/VHL): a (a ratio of RCC4/RCC-VHL+ ranging from 1 to ≦10)
O=C(Nc1cccnc1)c1ccc(CNS(=O)(=O)c2ccco2)cc1 [II-8, N-(3-Pyridinyl)-4-{[(2-furanylsulfonyl)amino]methyl}benzamide] | – | Ratio = IC50RCC4/VHL/IC50RCC4 (RCC4/VHL): a (a ratio of RCC4/RCC-VHL+ ranging from 1 to ≦10)
